Data: PubChem BioAssay AID328 (DTP/NCI, 2004)
Toxic doses and inconclusive results are not listed. Rule for the calls: active = survival T/C of 150% or more; inactive = T/C below 125% in these data.

System: BDF1 mice, P388 leukemia ip, median survival T/C
Assay: NCI In Vivo Anticancer Drug Screen. Data for tumor model P388 Leukemia (intraperitoneal) in B6D2F1 (BDF1) mice
Conditions: endpoint: median survival time, higher = longer survival
Summary of the method: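 Mice carrying the transplantable tumour receive compound or vehicle. Survival is followed in each arm, and the treated measure is divided by the vehicle measure.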

[1] = dose: 100.0 mg/kg/injection, schedule: Q01DX001 (ip), vehicle: saline with Tween-80
[2] = dose: 200.0 mg/kg/injection, schedule: Q01DX001 (ip), vehicle: saline with Tween-80
[3] = dose: 100.0 mg/kg/injection, schedule: Q01DX009 (ip), vehicle: saline with Tween-80
[4] = dose: 100.0 mg/kg/injection, schedule: Q04DX003 (ip), vehicle: Klucel (hydroxypropylcellulose) (HPC)
[5] = dose: 200.0 mg/kg/injection, schedule: Q04DX003 (ip), vehicle: Klucel (hydroxypropylcellulose) (HPC)
[6] = dose: 400.0 mg/kg/injection, schedule: Q04DX003 (ip), vehicle: Klucel (hydroxypropylcellulose) (HPC)
[7] = dose: 50.0 mg/kg/injection, schedule: Q04DX003 (ip), vehicle: saline with Tween-80
[8] = dose: 100.0 mg/kg/injection, schedule: Q04DX003 (ip), vehicle: saline with Tween-80
[9] = dose: 200.0 mg/kg/injection, schedule: Q01DX009 (ip), vehicle: saline with Tween-80
[10] = dose: 400.0 mg/kg/injection, schedule: Q01DX009 (ip), vehicle: saline with Tween-80
[11] = dose: 50.0 mg/kg/injection, schedule: Q01DX009 (ip), vehicle: saline with Tween-80

Measured: T/C

CCOC(=O)C1=C(C)NC(C)=C(C(=O)OCC)C1c1ccccc1Cl
inactive: dose: 28.75 mg/kg/injection, schedule: Q04DX003 (ip), vehicle: Klucel (hydroxypropylcellulose) (HPC) 95 % of control | dose: 57.5 mg/kg/injection, schedule: Q04DX003 (ip), vehicle: Klucel (hydroxypropylcellulose) (HPC) 104 % of control | dose: 75.0 mg/kg/injection, schedule: Q01DX009 (ip), vehicle: Klucel (hydroxypropylcellulose) (HPC) 90 % of control | dose: 115.0 mg/kg/injection, schedule: Q01DX009 (ip), vehicle: Klucel (hydroxypropylcellulose) (HPC) 86 % of control | dose: 115.0 mg/kg/injection, schedule: Q04DX003 (ip), vehicle: Klucel (hydroxypropylcellulose) (HPC) 100 % of control | dose: 170.0 mg/kg/injection, schedule: Q01DX001 (ip), vehicle: Klucel (hydroxypropylcellulose) (HPC) 100 % of control | dose: 260.0 mg/kg/injection, schedule: Q01DX001 (ip), vehicle: Klucel (hydroxypropylcellulose) (HPC) 100 % of control

FC(F)(F)/C([S-])=C(/[S-])C(F)(F)F.FC(F)(F)/C([S-])=C(/[S-])C(F)(F)F.FC(F)(F)/C([S-])=C(/[S-])C(F)(F)F.FC(F)(F)/C([S-])=C(/[S-])C(F)(F)F.[Fe+3].[Fe+3]
inactive: dose: 50.0 mg/kg/injection, schedule: Q01DX001 (ip), vehicle: saline with Tween-80 100 % of control | [1] 104 % of control | [2] 104 % of control

CCCCN(C)N=Nc1ccccc1C(N)=O
inactive: dose: 50.0 mg/kg/injection, schedule: Q04DX003 (ip), vehicle: Klucel (hydroxypropylcellulose) (HPC) 100 % of control | [3] 120 % of control | [4] 97 % of control | [5] 109 % of control | [6] 103 % of control

CCOC(=O)CCN(CCN(C)C)c1cc(O)c2c(c1O)C(=O)c1ccccc1C2=O
inactive: dose: 50.0 mg/kg/injection, schedule: Q01DX005 (ip), vehicle: saline with Tween-80 123 % of control

OC(Cc1ccnc2ccccc12)C(Cl)(Cl)Cl (stereo not drawn)
inactive: [7] 100 % of control | [3] 100 % of control | [4] 105 % of control | [8] 100 % of control | [9] 100 % of control | [5] 100 % of control | dose: 200.0 mg/kg/injection, schedule: Q04DX003 (ip), vehicle: saline with Tween-80 105 % of control | [10] 100 % of control | [6] 115 % of control

CC(C)(O)c1cnc(OCc2ccccc2)nc1OCc1ccccc1
inactive: dose: 100.0 mg/kg/injection, schedule: Q01DX001 (ip), vehicle: Klucel (hydroxypropylcellulose) (HPC) 109 % of control | dose: 100.0 mg/kg/injection, schedule: Q01DX009 (ip), vehicle: Klucel (hydroxypropylcellulose) (HPC) 95 % of control | dose: 200.0 mg/kg/injection, schedule: Q01DX001 (ip), vehicle: Klucel (hydroxypropylcellulose) (HPC) 104 % of control | dose: 200.0 mg/kg/injection, schedule: Q01DX009 (ip), vehicle: Klucel (hydroxypropylcellulose) (HPC) 91 % of control | dose: 400.0 mg/kg/injection, schedule: Q01DX001 (ip), vehicle: Klucel (hydroxypropylcellulose) (HPC) 95 % of control | dose: 400.0 mg/kg/injection, schedule: Q01DX009 (ip), vehicle: Klucel (hydroxypropylcellulose) (HPC) 86 % of control

O=S(=O)(Nc1cc(Cl)c(NS(=O)(=O)c2ccccc2)cc1Cl)c1ccccc1
inactive: [1] 95 % of control | [2] 90 % of control | dose: 400.0 mg/kg/injection, schedule: Q01DX001 (ip), vehicle: saline with Tween-80 86 % of control

C=CCCCCCCCCC(=O)NCc1nc2ccccc2[nH]1
inactive: [3] 100 % of control | [9] 109 % of control | [10] 95 % of control

CCCCCCC(=O)/C=C/c1ccccc1OC
inactive: [11] 90 % of control | [3] 99 % of control | [9] 117 % of control

COc1ccc(C2=C(c3ccccc3)C(c3ccccc3)=C(c3ccc(OC)cc3)C2=O)cc1
inactive: [11] 103 % of control | [3] 89 % of control | [9] 99 % of control | [10] 94 % of control

NC(=O)C1(c2ccccc2)CCN(Cc2ccccc2)CC1
inactive: [11] 96 % of control | [7] 100 % of control | [3] 111 % of control | [8] 90 % of control
